{
  "source": "patent US12590094B2",
  "about": "“Compounds for the treatment of neurodegenerative and metabolic disorders” (UNIVERSITY OF FLORIDA RESEARCH FOUNDATION, INCORPORATED, priority 2019, dated 2026)",
  "key": {"[1]": {"test_system": "Human stem cell-derived neurons", "assay": "Cellular PD model, α-synuclein PFFs-seeded human neurons", "format": "cell-based", "conditions": "2 μM, PFFs 50 μg/ml, 17 days", "method": "Human stem cell-derived neurons (30 days post-differentiation) were seeded with 50 μg/ml preformed α-synuclein fibrils (PFFs), treated with DMCM-10049 at 2 μM or vehicle, and fixed 17 days later for analysis. Control cells were not PFFs-seeded. A: Dendritic spines were labeled with the marker F-actin using Phalloidin-iFluor 488 (Abcam). B: pα-syn* (red, antibody GTX50222, GeneTex)+DAPI (blue) staining. Quantification was done using ImageJ (NIH), statistical analysis with one way ANOVA (Prism7). Mean values and SDs of 8 images (A) or 6 images (B) per each condition are shown. ****P<0.0001; ***P<0.001; ns=non significant."}, "GABAA R subtypes": {"test_system": "GABAA R subtypes", "conditions": "relative to DMCM; cited from earlier work"}, "Cells exposed to TPrP [2]": {"test_system": "Cells exposed to TPrP", "assay": "cells", "conditions": "read-out: Viability EC50"}, "PARP-1": {"target": "PARP-1 (Homo sapiens, UniProt P09874)", "sequence (P09874 whole entry)": "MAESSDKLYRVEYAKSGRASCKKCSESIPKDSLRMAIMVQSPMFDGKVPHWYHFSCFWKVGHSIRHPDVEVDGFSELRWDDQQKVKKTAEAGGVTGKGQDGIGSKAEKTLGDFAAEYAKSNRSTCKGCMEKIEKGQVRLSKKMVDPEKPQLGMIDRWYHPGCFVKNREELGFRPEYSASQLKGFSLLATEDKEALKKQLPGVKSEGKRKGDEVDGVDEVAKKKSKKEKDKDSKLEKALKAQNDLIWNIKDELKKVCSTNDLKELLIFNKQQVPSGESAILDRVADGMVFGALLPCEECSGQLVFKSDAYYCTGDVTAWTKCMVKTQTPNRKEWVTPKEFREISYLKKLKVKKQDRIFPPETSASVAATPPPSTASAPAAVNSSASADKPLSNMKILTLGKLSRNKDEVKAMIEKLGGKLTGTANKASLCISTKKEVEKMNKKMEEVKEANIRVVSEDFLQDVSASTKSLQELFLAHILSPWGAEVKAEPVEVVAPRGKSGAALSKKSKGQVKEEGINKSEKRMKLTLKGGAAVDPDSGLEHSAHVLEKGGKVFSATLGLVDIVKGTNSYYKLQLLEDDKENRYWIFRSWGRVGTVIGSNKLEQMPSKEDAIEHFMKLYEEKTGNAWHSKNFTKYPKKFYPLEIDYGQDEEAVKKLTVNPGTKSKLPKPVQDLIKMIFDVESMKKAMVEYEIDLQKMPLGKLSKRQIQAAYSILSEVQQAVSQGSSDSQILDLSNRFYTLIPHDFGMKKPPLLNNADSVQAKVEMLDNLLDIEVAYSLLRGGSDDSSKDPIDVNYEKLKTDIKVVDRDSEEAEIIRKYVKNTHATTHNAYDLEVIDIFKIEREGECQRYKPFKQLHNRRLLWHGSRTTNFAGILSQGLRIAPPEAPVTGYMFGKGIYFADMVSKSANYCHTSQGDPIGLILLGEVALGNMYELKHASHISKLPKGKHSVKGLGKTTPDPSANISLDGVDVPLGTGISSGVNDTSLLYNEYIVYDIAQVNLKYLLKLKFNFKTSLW", "assay": "PARP1 chemiluminescent assay kit (BPS Bioscience)", "format": "biochemical", "conditions": "FIG. 15", "method": "ABT-888 is a known PARP1 inhibitor serving as pharmacological control for the assay. […] The assay was performed using the BPS Bioscience PARP1 chemiluminescent assay kit according to the manufacturer's instructions."}, "[3]": {"test_system": "PK1 neuroblastoma cells treated with TPrP", "assay": "cells", "format": "cell-based", "conditions": "Neuroblastoma cell"}, "NAMPT": {"target": "T1, NAMPT (Homo sapiens, UniProt P43490)", "T1 construct": "purchased Abcam ab221819", "T1 sequence (P43490 whole entry)": "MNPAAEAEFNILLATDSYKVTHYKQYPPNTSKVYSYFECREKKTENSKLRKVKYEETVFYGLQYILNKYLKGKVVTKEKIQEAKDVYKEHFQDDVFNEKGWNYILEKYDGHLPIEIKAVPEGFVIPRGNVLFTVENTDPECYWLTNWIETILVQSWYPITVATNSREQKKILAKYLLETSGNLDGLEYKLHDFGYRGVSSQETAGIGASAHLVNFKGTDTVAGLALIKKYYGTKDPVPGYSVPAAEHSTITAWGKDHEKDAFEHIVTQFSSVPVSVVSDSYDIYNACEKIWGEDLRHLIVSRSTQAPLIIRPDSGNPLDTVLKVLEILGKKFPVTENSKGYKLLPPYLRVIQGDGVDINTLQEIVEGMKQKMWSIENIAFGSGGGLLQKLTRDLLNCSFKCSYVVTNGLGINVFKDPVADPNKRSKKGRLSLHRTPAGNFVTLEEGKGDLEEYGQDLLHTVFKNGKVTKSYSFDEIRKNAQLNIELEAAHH", "assay": "Colorimetric NAMPT activity assay (Abcam, ab221819)", "format": "biochemical", "conditions": "tested at 5 μM or 20 μM", "method": "Compounds were tested in a colorimetric NAMPT activity assay (Abcam, ab221819). Each data point represents a duplicate sample. […] Compounds were tested at 5 μM (A) or 20 μM (B)."}, "[4]": {"test_system": "PK1 neuroblastoma cells treated with TPrP", "assay": "cells", "format": "cell-based", "conditions": "for EC50: Neuroblastoma cell"}, "[5]": {"test_system": "Primary mouse cortical neurons", "format": "cell-based"}, "[6]": {"test_system": "PK1 cells treated with TPrP", "format": "cell-based"}, "VEGFR-1 [7]": {"target": "T2, VEGFR-1 (Homo sapiens, UniProt P17948)", "T2 sequence (P17948 27-1338, species assumed)": "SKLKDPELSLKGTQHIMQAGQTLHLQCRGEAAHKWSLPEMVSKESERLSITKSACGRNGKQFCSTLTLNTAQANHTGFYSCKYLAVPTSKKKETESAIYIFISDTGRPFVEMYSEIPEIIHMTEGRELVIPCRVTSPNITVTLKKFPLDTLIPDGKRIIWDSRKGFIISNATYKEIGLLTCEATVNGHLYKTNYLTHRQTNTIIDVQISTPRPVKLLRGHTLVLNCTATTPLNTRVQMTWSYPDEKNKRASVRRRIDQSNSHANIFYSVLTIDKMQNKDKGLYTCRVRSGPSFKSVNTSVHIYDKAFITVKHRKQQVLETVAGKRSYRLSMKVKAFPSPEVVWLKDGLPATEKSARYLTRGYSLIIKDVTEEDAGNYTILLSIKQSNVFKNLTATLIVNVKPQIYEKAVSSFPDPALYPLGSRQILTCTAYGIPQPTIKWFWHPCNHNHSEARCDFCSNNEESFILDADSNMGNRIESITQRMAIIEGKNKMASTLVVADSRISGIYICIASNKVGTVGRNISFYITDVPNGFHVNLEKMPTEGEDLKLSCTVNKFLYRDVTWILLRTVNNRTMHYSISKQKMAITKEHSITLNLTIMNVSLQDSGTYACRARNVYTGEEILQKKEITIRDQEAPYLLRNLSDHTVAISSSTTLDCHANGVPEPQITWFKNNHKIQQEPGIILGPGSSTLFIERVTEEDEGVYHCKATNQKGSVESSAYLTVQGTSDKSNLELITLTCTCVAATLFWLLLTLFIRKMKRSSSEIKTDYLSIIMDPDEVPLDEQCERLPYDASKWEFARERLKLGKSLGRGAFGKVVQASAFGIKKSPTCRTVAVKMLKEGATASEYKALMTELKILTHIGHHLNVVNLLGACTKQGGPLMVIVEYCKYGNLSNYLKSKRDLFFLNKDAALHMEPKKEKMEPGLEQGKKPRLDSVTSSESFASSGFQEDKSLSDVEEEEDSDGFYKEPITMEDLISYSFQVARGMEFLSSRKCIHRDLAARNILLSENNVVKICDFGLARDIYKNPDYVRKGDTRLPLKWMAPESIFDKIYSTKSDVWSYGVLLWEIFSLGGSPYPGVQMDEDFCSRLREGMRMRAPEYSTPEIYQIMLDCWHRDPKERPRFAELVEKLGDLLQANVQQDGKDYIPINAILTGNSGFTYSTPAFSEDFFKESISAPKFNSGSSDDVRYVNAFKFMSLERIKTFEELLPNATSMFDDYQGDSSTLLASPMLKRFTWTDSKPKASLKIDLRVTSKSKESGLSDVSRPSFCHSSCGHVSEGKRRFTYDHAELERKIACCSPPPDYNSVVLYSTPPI", "assay": "VEGFR inhibition of vatalanib analogs", "format": "biochemical", "conditions": "relative to vatalanib"}, "VEGFR-1 [8]": {"target": "T2, VEGFR-1", "conditions": "subtype not given; cited from earlier work"}, "Cells exposed to TPrP [9]": {"test_system": "Cells exposed to TPrP", "conditions": "read-out: Viability EC50"}, "[10]": {"test_system": "Murine stem-cell derived neurons", "assay": "Cellular PD/synucleinopathy model, PFFs-seeded murine neurons, neurite length", "format": "cell-based", "conditions": "FIG. 14", "method": "Murine stem-cell derived neurons (8 days post-differentiation) were seeded with PFFs (A, B: 4 μg/ml; C, D: 3 μg/ml) and treated with the test compounds at the dose indicated, or with the vehicle DMSO, during the last 2 days of differentiation. Control cells were not PFFs-seeded. Cells were photographed by phase contrast microscopy. Neurite length was quantified using the NeuronJ plugin of ImageJ (NIH), statistical analysis was done in pairs by comparing compound-treated cells with the DMSO control (student's t-test, Prism8). Mean values and SEMs of 4 fields per each condition are shown. Each field contained approximately 50 to 100 neurons. Images shown correspond to a representative area of one field. ****P<0.0001; ***P<0.001; **P<0.01; *P<0.05; ns=not significant."}, "[11]": {"conditions": "in vivo; cited from earlier work"}, "[12]": {"test_system": "PK1 cells exposed to TPrP", "format": "cell-based"}, "[13]": {"conditions": "read-out: EC50 (TPrP toxicity rescue / neuroprotection)"}},
  "note": "Entries after “also recorded” stand apart in the source; their conditions may differ. Read-outs that look alike come from different tables or passages of the source.",
  "data": [
    {"molecule": "CCc1c(C(=O)NN)ncc2[nH]c3cc(OC)c(OC)cc3c12", "note": "[DMCM-10049]", "values": [
      {"measurement": "dendritic spines (F-actin)", "setting": "[1]", "result": "preserves dendritic spines"},
      {"measurement": "pα-syn* levels", "setting": "[1]", "result": "reduces pα-syn* levels"},
      {"measurement": "reduced potency for most GABAA R subtypes", "setting": "GABAA R subtypes", "result": "over 100 ×"},
      {"measurement": "EC50", "setting": "Cells exposed to TPrP [2]", "result": "~500", "unit": "nM"},
      {"measurement": "PARP-1 inhibition", "setting": "PARP-1", "result": "absence of PARP-1 inhibition"}
    ]},
    {"molecule": "CCc1c(C(=O)OC)ncc2[nH]c3cc(OC)c(OC)cc3c12", "note": "[SR1-75869, DMCM, reference compound]", "values": [
      {"measurement": "EC50", "setting": "[3]; read-out: NAD EC50", "result": 749, "unit": "nM"},
      {"measurement": "Activation of NAMPT", "setting": "NAMPT", "result": "not"},
      {"measurement": "EC50", "setting": "[4]; read-out: Viability EC50", "result": 120, "unit": "nM"},
      {"measurement": "neuritic breakdown and neuronal vacuolation induced by TPrP", "setting": "[5]", "result": "suppressed"},
      {"measurement": "rescue of TPrP-induced toxicity (cell viability)", "setting": "[5]", "result": "rescues TPrP-induced toxicity"},
      {"measurement": "excessive protein ADP ribosylation induced by TPrP", "setting": "[6]", "result": "mitigates excessive protein ADP ribosylation"}
    ]},
    {"molecule": "CC(=O)c1cccc(Nc2nnc(Cc3ccncc3)c3ccccc23)c1", "note": "[SR1-134005]", "values": [
      {"measurement": "EC50", "setting": "[3]; read-out: NAD EC50", "result": 105, "unit": "nM"},
      {"measurement": "EC50", "setting": "Cells exposed to TPrP [2]", "result": 20, "unit": "nM"},
      {"measurement": "Activation of NAMPT", "setting": "NAMPT", "result": "Activation of NAMPT"},
      {"measurement": "fold more potent than vatalanib as a neuroprotective agent", "setting": "[4]", "result": "more than 6 fold"},
      {"measurement": "EC50", "setting": "[4]; [13]", "result": 6.3, "unit": "nM"},
      {"measurement": "EC50", "setting": "[4]; read-out: Viability EC50", "result": 6.3, "unit": "nM"},
      {"measurement": "PARP-1 inhibition", "setting": "PARP-1", "result": "absence of PARP-1 inhibition"},
      {"measurement": "fold less potent than vatalanib at VEGFR-1", "setting": "VEGFR-1 [7]", "result": 13, "unit": "fold"}
    ]},
    {"molecule": "COc1cc(Nc2nnc(Cc3ccncc3)c3ccccc23)cc(OC)c1", "note": "[SR1-151915]", "values": [
      {"measurement": "EC50", "setting": "[3]; read-out: NAD EC50", "result": 280, "unit": "nM"},
      {"measurement": "IC50", "setting": "VEGFR-1 [8]", "result": "> 1000", "unit": "nM"},
      {"measurement": "EC50", "setting": "[4]; [13]", "result": 71.4, "unit": "nM"},
      {"measurement": "EC50", "setting": "[4]; read-out: Viability EC50", "result": 71.4, "unit": "nM"}
    ]},
    {"molecule": "O=C(NCCCn1ccnc1)c1cnn2c(C(F)(F)F)cc(-c3ccccc3)nc12", "note": "[SR1-293229]", "values": [
      {"measurement": "EC50", "setting": "Cells exposed to TPrP [9]", "result": 2, "unit": "nM"},
      {"measurement": "EC50", "setting": "[3]; read-out: NAD EC50", "result": 6.8, "unit": "nM"},
      {"measurement": "EC50", "setting": "Cells exposed to TPrP [2]", "result": 1.5, "unit": "nM"},
      {"measurement": "loss of neurites induced by PFFs exposure", "setting": "[10]", "result": "prevent loss of neurites"},
      {"measurement": "Activation of NAMPT", "setting": "NAMPT", "result": "not"},
      {"measurement": "EC50", "setting": "[4]; read-out: Viability EC50", "result": 1.9, "unit": "nM"},
      {"measurement": "PARP-1 inhibition", "setting": "PARP-1", "result": "absence of PARP-1 inhibition"}
    ]},
    {"molecule": "COc1ccc(-c2cc(=O)c3c(OC)c(OC)c(OC)c(OC)c3o2)cc1OC", "note": "[SR-01000712262, 2-(3,4-dimethoxyphenyl)-5,6,7,8-tetramethoxy-4H-chromen-4-one]", "values": [
      {"measurement": "EC50", "setting": "[3]; read-out: NAD EC50", "result": 664, "unit": "nM"},
      {"measurement": "loss of neurites induced by PFFs exposure", "setting": "[10]", "result": "prevent loss of neurites"},
      {"measurement": "Activation of NAMPT", "setting": "NAMPT", "result": "not"},
      {"measurement": "EC50", "setting": "[4]; read-out: Viability EC50", "result": 580, "unit": "nM"},
      {"measurement": "PARP-1 inhibition", "setting": "PARP-1", "result": "absence of PARP-1 inhibition"}
    ]},
    {"molecule": "Clc1ccc(Nc2nnc(Cc3ccncc3)c3ccccc23)cc1", "note": "[Vatalanib, reference compound]", "values": [
      {"measurement": "EC50", "setting": "[3]; read-out: EC50 (NAD assay)", "result": 195, "unit": "nM"},
      {"measurement": "EC50", "setting": "[3]; read-out: NAD EC50", "result": 195, "unit": "nM"},
      {"measurement": "EC50", "setting": "Cells exposed to TPrP [2]", "result": 45, "unit": "nM"},
      {"measurement": "loss of neurites induced by PFFs exposure", "setting": "[10]", "result": "prevent loss of neurites"},
      {"measurement": "EC50", "setting": "[4]; [13]", "result": 39.9, "unit": "nM"},
      {"measurement": "EC50", "setting": "[4]; read-out: Viability EC50", "result": 40, "unit": "nM"},
      {"measurement": "oral bioavailability", "setting": "[11]", "result": "high"}
    ]},
    {"molecule": "CCOC(=O)c1ncn2c1CN(C)C(=O)c1cc(F)ccc1-2", "note": "[flumazenil]", "values": [
      {"measurement": "protection against TPrP toxicity", "setting": "[12]", "result": "neither rescued TPrP-induced toxicity; also recorded: absence of protection"}
    ]},
    {"molecule": "NAD", "values": [
      {"measurement": "neuritic breakdown and neuronal vacuolation induced by TPrP", "setting": "[5]", "result": "suppressed"}
    ]}
  ]
}
